Like-named read-outs stand apart in the source and are kept apart here.
Assays:
[1] = pKa measurement of unformulated amine lipid (fluorescence, method of Jayaraman et al.); format: physicochemical; settings: 100 μM in 0.1 M phosphate buffer pH 4.5-9.0
Procedure: The pKa of each amine lipid was determined according to the method in Jayaraman, et al. (Angewandte Chemie, 2012) with the following adaptations. […] Lipid was diluted to 100 μM in 0.1 M phosphate buffer (Boston Bioproducts) where the pH ranged from 4.5-9.0. Fluorescence intensity was measured using excitation and emission wavelengths of 321 nm and 448 nm.

[2] = tested on: TTR; assay: TTR editing in mouse liver by NGS after i.v. LNP delivery of Cas9 mRNA and sgRNA; format: in vivo; settings: CD-1 female mice
Procedure: Preparations of various LNP compositions were prepared with amine lipids. In assays for percent liver editing in mice, Cas9 mRNA and chemically modified sgRNA were formulated in LNPs, at either a 1:1 w/w ratio or a 1:2 w/w ratio. LNPs are formulated with a composition of a given ionizable lipid (e.g. an amine lipid), DSPC, cholesterol, and PEG-2k-DMG, with a 6.0 N:P ratio.
(§1) CD-1 female mice, ranging from 6-10 weeks of age were used in each study. Animals were weighed and grouped according to body weight for preparing dosing solutions based on group average weight. LNPs were dosed via the lateral tail vein in a volume of 0.2 mL per animal (approximately 10 mL per kilogram body weight). The animals were periodically observed post dose for adverse effects for at least 24 hours post dose. Animals were euthanized at 6 or 7 days by exsanguination via cardiac puncture under isoflurane anesthesia. Blood was collected into serum separator tubes or into tubes containing buffered sodium citrate for plasma as described herein. For studies involving in vivo editing, liver tissue was collected from each animal for DNA extraction and analysis.
Cohorts of mice were measured for liver editing by Next-Generation Sequencing (NGS).
In brief, to quantitatively determine the efficiency of editing at the target location in the genome, genomic DNA was isolated and deep sequencing was utilized to identify the presence of insertions and deletions introduced by gene editing.
PCR primers were designed around the target site (e.g., B2M), and the genomic area of interest was amplified. Additional PCR was performed according to the manufacturer's protocols (Illumina) to add the necessary chemistry for sequencing. The amplicons were sequenced on an Illumina MiSeq instrument. The reads were aligned to the […] after eliminating those having low quality scores. The resulting files containing the reads were mapped to the reference genome (BAM files), where reads that overlapped the target region of interest were selected and the number of wild type reads versus the number of reads which contain an insertion, substitution, or deletion was calculated.
The editing percentage (e.g., the “editing efficiency” or “percent editing”) is defined as the total number of sequence reads with insertions or deletions over the total number of sequence reads, including wild type.
CD-1 female mice were dosed i.v. at 0.1 mpk or 0.3 mpk. At 6 days post-dose, animals were sacrificed. For animals dosed with G282 targeting TTR, blood and the liver were collected and serum TTR and editing were measured. For animals dosed with G650 targeting B2M, liver was collected and editing was measured.

[3] = tested on: TTR; assay: Transthyretin (TTR) ELISA analysis of mouse serum after LNP dosing; format: in vivo; settings: for response vs control in vivo at 0.03 mg/kg / response vs control in vivo at 0.1 mg/kg: Mus musculus, iv, read-out: Serum TTR % TSS
Procedure: as §1
CD-1 female mice were dosed i.v. at 0.1 mpk or 0.3 mpk. […] For animals dosed with G282 targeting TTR, blood and the liver were collected and serum TTR and editing were measured. For animals dosed with G650 targeting B2M, liver was collected and editing was measured.
Blood was collected and the serum was isolated as indicated. The total mouse TTR serum levels were determined using a Mouse Prealbumin (Transthyretin) ELISA Kit (Aviva Systems Biology, Cat. OKIA00111). Briefly, sera were serial diluted with kit sample diluent to a final dilution of 10,000-fold for 0.1 mpk dose and 2,500-fold for 0.3 mpk. This diluted sample was then added to the ELISA plates and the assay was then carried out according to directions.

[4] = Example 63: 0.03 mpk i.v., 7 days post-dose, G282 1:1
[5] = Example 63: 0.1 mpk i.v., 7 days post-dose, G282 1:1
[6] = Example 60: 0.1 mpk i.v., 6 days post-dose, G502 1:2
[7] = Example 58: 0.1 mpk i.v., 6 days post-dose, G282 1:1
[8] = 144 h, Example 58: 0.1 mpk i.v., 6 days post-dose, G282 1:1
[9] = Example 62: 0.03 mpk i.v., 7 days post-dose, G282 1:2
[10] = Example 62: 0.1 mpk i.v., 7 days post-dose, G282 1:2

In the case of `CCCCCCCCCOC(=O)CCCCCCCN(CCCCCCC(OCCCCCCCC)OCCCCCCCC)CCCNS(C)(=O)=O` [Compound 48, nonyl 8-((7,7-bis(octyloxy)heptyl)(3-(methylsulfonamido)propyl)amino)octanoate], the pKa [1] is reported as 7.61.
With `CCCCCCCCOC(CCCCCCCN(CCO)CCCCCCCC(=O)OC(C)CCCCCC)OCCCCCCCC` (stereo not drawn) [Compound 27, octan-2-yl 8-((8,8-bis(octyloxy)octyl)(2-hydroxyethyl)amino)octanoate] the pKa [1] was 6.41, the “Editing Mean % Indel” value [2, 4] was 27.86% and the “Editing Mean % Indel” value [2, 5] was 57.10%. The “Serum TTR” value [3, 4] was 497.99 µg/mL, the “Serum TTR” value [3, 5] was 197.22 µg/mL and the response vs control in vivo at 0.03 mg/kg ([3]; 168 h, Example 63: 0.03 mpk i.v., 7 days post-dose, G282 1:1) was 61.7%. It also gave a response vs control in vivo at 0.1 mg/kg ([3]; 168 h, Example 63: 0.1 mpk i.v., 7 days post-dose, G282 1:1) of 24.4%.
In the case of `CCCCCCCCOC(CCCCCCN(CCO)CCCCCCCC(=O)OC(CC)CCCC)OCCCCCCCC` (stereo not drawn) [Compound 35, heptan-3-yl 8-((7,7-bis(octyloxy)heptyl)(2-hydroxyethyl)amino)octanoate], the pKa [1] is reported as 6.37.
For `CCCCCCCCCOC(=O)CCCCCCCN(CCO)CCCCCCCC(OC(C)CCCCCC)OC(C)CCCCCC` (stereo not drawn) [Compound 25, nonyl 8-[8,8-bis(1-methylheptoxy)octyl-(2-hydroxyethyl)amino]octanoate], the pKa [1] was 6.1, the “Editing Mean % Indel” value [2, 6] was 15.3% and the “Serum TTR” value [3, 6] was 985 µg/mL. The response vs control in vivo at 0.1 mg/kg ([3]; 144 h, Example 60: 0.1 mpk i.v., 6 days post-dose, G502 1:2) was 69%.
For `CCCCCCCCCOC(=O)CCCCCCCN(CCN)CCCCCCC(OCCCCCCCC)OCCCCCCCC` [Compound 36, nonyl 8-((2-aminoethyl)(7,7-bis(octyloxy)heptyl)amino)octanoate], the pKa [1] was 7.2.
For `CCCCCCCCCCCCOC(=O)CCCCN(CCO)CCCCCCCC(OCCCCCCCC)OCCCCCCCC` [Compound 14, dodecyl 5-((8,8-bis(octyloxy)octyl)(2-hydroxyethyl)amino)pentanoate], the pKa [1] was 6.46, the “Editing Mean % Indel” value [2, 7] was 12.1% and the “Serum TTR” value [3, 7] was 928 µg/mL. The response vs control in vivo at 0.1 mg/kg [3, 8] was 94%.
With `CCCCCCCCOC(CCCCCCCN(CCO)CCCCCCCC(=O)OCCCCCCC)OCCCCCCCC` [Compound 15, heptyl 8-((8,8-bis(octyloxy)octyl)(2-hydroxyethyl)amino)octanoate] the pKa [1] was 6.34, the “Editing Mean % Indel” value [2, 7] was 50.3% and the “Editing Mean % Indel” value [2, 9] was 16.4%. The “Editing Mean % Indel” value [2, 10] was 57.4%, the “Serum TTR” value [3, 7] was 179 µg/mL and the “Serum TTR” value [3, 9] was 548 µg/mL. For the same compound, the “Serum TTR” value [3, 10] was 180 µg/mL, the response vs control in vivo at 0.1 mg/kg [3, 8] was 18% and the response vs control in vivo at 0.03 mg/kg ([3]; 168 h, Example 62: 0.03 mpk i.v., 7 days post-dose, G282 1:2) was 86%. It also gave a response vs control in vivo at 0.1 mg/kg ([3]; 168 h, Example 62: 0.1 mpk i.v., 7 days post-dose, G282 1:2) of 28%.
Compound `CCCCCCCCOC(CCCCCCN(CCO)CCCCCCCC(=O)OC(C)CCCCCC)OCCCCCCCC` (stereo not drawn) [Compound 32, octan-2-yl 8-((7,7-bis(octyloxy)heptyl)(2-hydroxyethyl)amino)octanoate] has a pKa [1] of 6.36.
Work on `CCCCCCCCOC(CCCCCCCN(CCO)CCCCCCCCCCOC(=O)CCCCCC)OCCCCCCCC` [Compound 24, 10-((8,8-bis(octyloxy)octyl)(2-hydroxyethyl)amino)decyl heptanoate] yielded a pKa [1] of 5.95.
`CCCCCCCCOC(CCCCCCN(CCO)CCCCCCCC(=O)OCCCCCCC)OCCCCCCCC` [Compound 31, heptyl 8-((7,7-bis(octyloxy)heptyl)(2-hydroxyethyl)amino)octanoate] showed a pKa [1] of 6.47.
`CCCCCCCCCOC(=O)CCCCCCCN(CCCN)CCCCCCC(OCCCCCCCC)OCCCCCCCC` [Compound 38, nonyl 8-((3-aminopropyl)(7,7-bis(octyloxy)heptyl)amino)octanoate] showed a pKa [1] of 7.81.
Work on `CCCCCCCCOC(CCCCCCN(CCO)CCCCCCCC(=O)OCCCCC)OCCCCCCCC` [Compound 34, pentyl 8-((7,7-bis(octyloxy)heptyl)(2-hydroxyethyl)amino)octanoate] yielded a pKa [1] of 6.47.
`CCCCCCCCOC(CCCCCCN(CCO)CCCCCCCC(=O)OC(CC)CCCCCC)OCCCCCCCC` (stereo not drawn) [Compound 33, nonan-3-yl 8-((7,7-bis(octyloxy)heptyl)(2-hydroxyethyl)amino)octanoate] gave a pKa [1] of 6.33.
Compound `CCCCCCCCCOC(=O)CCCCCCCN(CCCCCCC(OCCCCCCCC)OCCCCCCCC)CCNS(C)(=O)=O` [Compound 47, nonyl 8-((7,7-bis(octyloxy)heptyl)(2-(methylsulfonamido)ethyl)amino)octanoate] has a pKa [1] of 6.93.
Work on `CCCCCCCCCOC(=O)CCCCCCCN(CCCO)CCCCCCC(OCCCCCCCC)OCCCCCCCC` [Compound 37, nonyl 8-((7,7-bis(octyloxy)heptyl)(3-hydroxypropyl)amino)octanoate] yielded a pKa [1] of 6.3.
Work on `CCCCCCCCCOC(=O)CCCCCCCN(CCCCCCC(OCCCCCCCC)OCCCCCCCC)CCCOC(C)=O` [Compound 50, nonyl 8-((3-acetoxypropyl)(7,7-bis(octyloxy)heptyl)amino)octanoate] yielded a pKa [1] of 5.45.
`CCCCCCCCCOC(=O)CCCCCCCN(CCCCCCC(OCCCCCCCC)OCCCCCCCC)CCOC(C)=O` [Compound 49, nonyl 8-((2-acetoxyethyl)(7,7-bis(octyloxy)heptyl)amino)octanoate] gave a pKa [1] of 5.32.
Compound `CCCCCCCCOC(CCCCCCCN(CCO)CCCCCCCC(=O)OC(C)CCCCCCCC)OCCCCCCCC` (stereo not drawn) [Compound 21, decan-2-yl 8-((8,8-bis(octyloxy)octyl)(2-hydroxyethyl)amino)octanoate] has a pKa [1] of 5.99.
